Read-outs that look alike come from different tables or passages of the source.
Assays:
[1] = target: T1, pooled human liver microsome (HLM) preparations (Homo sapiens, UniProt Q02928); test: Inhibition of MONACRA demethylation in pooled HLM preparations; type: biochemical; conditions: 150 µM MONACRA
T1 sequence (Q02928 5-519): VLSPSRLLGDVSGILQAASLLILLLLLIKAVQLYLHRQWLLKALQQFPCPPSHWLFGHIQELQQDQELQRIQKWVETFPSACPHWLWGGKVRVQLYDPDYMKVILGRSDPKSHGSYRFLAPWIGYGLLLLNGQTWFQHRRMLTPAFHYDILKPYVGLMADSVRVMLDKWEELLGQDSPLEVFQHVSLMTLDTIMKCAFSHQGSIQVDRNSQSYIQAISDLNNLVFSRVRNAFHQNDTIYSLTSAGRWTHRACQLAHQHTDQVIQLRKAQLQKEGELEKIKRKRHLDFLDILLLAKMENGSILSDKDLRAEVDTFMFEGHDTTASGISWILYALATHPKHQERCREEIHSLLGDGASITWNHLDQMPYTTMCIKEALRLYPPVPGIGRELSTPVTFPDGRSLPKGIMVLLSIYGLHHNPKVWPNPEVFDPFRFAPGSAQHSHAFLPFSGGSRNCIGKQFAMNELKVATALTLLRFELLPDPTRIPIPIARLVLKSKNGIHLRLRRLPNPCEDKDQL
Description: (§1) To probe the role of CYP4A11 and CYP1A2 in MONACRA metabolism by HLM, we employed inhibitory analysis with the use of epalrestat as a specific inhibitor of CYP4A11 [22] and fluvoxamine as a CYP1A2 inhibitor [37]. We explored the effect of the inhibitors on the activity of recombinant CYP1A2 and CYP4A11, as well as the activity of six different preparations of HLM (preparation X347 was not available at the time of the study).
(§2) Figure 12: Effect of epalrestat (A) and fluvoxamine (B) on 3-(6-methoxynaphthalen-2-yl)acrylic acid (MONACRA) demethylation by recombinant CYP1A2 (black) and CYP4A11 (red) and three pooled human liver microsome (HLM) preparations: X263 (green), DNJ (blue), and WGP (brown). Solid lines represent the approximation of the datasets by eqn 1 (in the instances of pure inhibition) or a combination of two hyperbolic equations (in the cases of activation or combined inhibition and activation). All experiments were carried out at 150 µM MONACRA concentration. The datasets shown in the graphs represent the averages of the results of four (fluvoxamine) or two (epalrestat) individual experiments.
This study used preparations of pooled HLMs from 50, 150, or 200 donors (mixed gender). The preparations CDN, DNJ, and WGP were INVITROCYP 150-Donor Human Liver Microsomes obtained from BioIVT Corporation (Westbury, NY). Lot EGW is INVITROCYP M-Class 50-Donor HLM procured from the same company. Lots 1,910,096 and 1,210,347 were XTreme 200 Mixed Gender HLM (200 donors) purchased from XenoTech LLC (Kansas City, KS), currently a part of BioIVT. Lot 2,110,263 corresponds to mixed gender HLM from 50 donors from the same company. These lots are referred to herein as X096, X347, and X263, respectively. The supplier of the HLM preparations used in our studies, BioIVT Corporation, has declared to adhere to the regulations of the Department of Health and Human Services for the protection of human subjects (45 CFR §46.116 and §46.117) and Good Clinical Practice, (ICH E6) in obtaining the samples of human tissues used for producing the preparations of human subcellular fractions available from these companies.
(§3) Inhibition of MONACRA metabolism by epalrestat and fluvoxamine was studied using the high-throughput assay described above. The substrate concentration was kept constant at 150 µM. Each column of the well plate comprised eight wells with different concentrations of inhibitor complemented with two wells with no inhibitor added (100% activity samples) and two wells with no inhibitor and no NADPH added (‘blank’ samples). […] The fractional inhibition at each inhibitor concentration was determined from the ratio of the reaction rate in the presence of an inhibitor to the rate observed at no inhibitor added. The resulting dependence of the fractional inhibition on the inhibitor concentration was fitted to a four-parameter logistic equation (Hill equation):
(§4) (1) FI=v0−vi/v0=Amax[I]^N/IC50+[I]^N
In this equation, F I and vi are the fractional inhibition and the reaction velocity observed at inhibitor concentration [I], v0 is the reaction rate at no inhibitor added, and A max is the maximal amplitude of inhibition. IC 50 is the concentration of inhibitor at which the inhibition reaches 50% of its maximal amplitude (A max), and N is the Hill coefficient.

CYP4A11 = target: T2, CYP4A11 (Homo sapiens, UniProt Q02928); test: Inhibition of MONACRA demethylation by recombinant CYP4A11; type: biochemical; design: purchased Gentest (Huntsville, AL), now a part of Discovery Life Sciences lot 2402280; host or cells: insect cells, recombinant baculovirus; conditions: recombinant CYP4A11 Supersomes; 150 µM MONACRA
T2 sequence (Q02928 5-519): T1 sequence (Q02928 5-519)
Description: as §1, §2
as §3, with “The” for “The fractional inhibition at each inhibitor concentration was determined from the ratio of the reaction rate in the presence of an inhibitor to the rate observed at no inhibitor added. The”
as §4
IC 50 is the concentration of inhibitor at which the inhibition reaches 50% of its maximal amplitude (A max), and N is the Hill coefficient.

[2] = substrate: COc1ccc2cc(C=CC(=O)O)ccc2c1; test: MONACRA demethylation by recombinant CYP4A11 in Supersomes, high-throughput fluorimetric assay; type: biochemical, human; conditions: other: CYP4A11 Supersomes, Michaelis–Menten fit, 20 min at 30°C, ± = confidence interval P=0.05
Experimental: Based on these observations, we developed a high-throughput automated assay applicable for studying SSPs of MONACRA metabolism by microsomal P450 enzymes. In this procedure, the incubation mixtures containing an NADPH-generating system and various substrate concentrations are placed in a multiwell plate and preincubated at 30°C in a thermostated shaker. The reaction is started by adding microsomal suspension to the final concentration of 0.3–1 mg/ml of microsomal protein or 0.02–0.1 µM of recombinant P450 enzymes in Supersomes. Following the incubation for 20 min at 30°C, the reaction is quenched by adding trichloroacetic acid (final concentration […]). After supplementing the wells with Na-glycine buffer (pH 10.4, final concentration 2.1 M), the plates are subjected to scanning the fluorescence spectra with excitation at 375 nm. This assay, which is described in detail in Materials and Methods, allows reliable detection of the concentrations of HONACRA as low as 0.1 µM.
We used the high-throughput activity assay described above to probe MONACRA metabolism by 16 human microsomal P450 enzymes, namely CYP1A2, CYP2A6, CYP2B6, CYP2C8, CYP2C9, CYP2C19, CYP2D6, CYP2E1, CYP2J2, CYP3A4, CYP3A5, CYP4A11, CYP4F2, CYP4F3A, CYP4F3B, and CYP4F12. […]

[3] = all studied HLM samples (six preparations)

Molecule: CC(/C=C1\SC(=S)N(CC(=O)O)C1=O)=C\c1ccccc1 [epalrestat]
- Inhibition (amplitude) ([1]; HLM sample CDN): 99.7±0.6%
- IC50 ([1]; HLM sample CDN, unit not given (µM)): 1.48 ± 0.21 µM
- Inhibition (amplitude) ([1]; HLM sample DNJ): 93.0±2.3%
- IC50 ([1]; HLM sample DNJ, unit not given (µM)): 2.02 ± 1.7 µM
- Inhibition (amplitude) ([1]; HLM sample EGW): 99.8±0.4%
- IC50 ([1]; HLM sample EGW, unit not given (µM)): 2.15 ± 0.52 µM
- Inhibition (amplitude) ([1]; HLM sample WGP): 97.1±5.7%
- IC50 ([1]; HLM sample WGP, unit not given (µM)): 2.14 ± 0.94 µM
- Inhibition (amplitude) ([1]; HLM sample X096): 93.9±0.7%
- IC50 ([1]; HLM sample X096, unit not given (µM)): 5.36 ± 0.13 µM
- Inhibition (amplitude) ([1]; HLM sample X263): 100.0%
- IC50 ([1]; HLM sample X263, unit not given (µM)): 5.09 ± 1.04 µM
- IC50 [1, 3]: 3 ± 1.4 µM
- amplitude of inhibition [1, 3]: 97.2±2.5
- IC50 (CYP4A11): 1300 nM
- effect on MONACRA demethylation by CYP4A11 (CYP4A11): complete inhibition

Molecule: COCCCC/C(=N\OCCN)c1ccc(C(F)(F)F)cc1 [fluvoxamine]
- amplitude of inhibition ([1]; HLM preparation DNJ): 69%
- IC50 ([1]; HLM preparation DNJ, read-out: IC 50): 14 µM
- effect on MONACRA metabolism in HLM ([1]; HLM preparations CDN, WGP and X096): combination of an inhibitory effect at lower concentrations with an activation that manifests itself as the concentration increases
- effect on MONACRA metabolism in HLM ([1]; HLM preparations EGW and X263): activation similar to that observed in CYP4A11 Supersomes
- effect on MONACRA demethylation by CYP4A11 (CYP4A11): pronounced activation

B1: CYP4A11 (Homo sapiens) (protein)
chain: T1 sequence (Q02928 5-519)
notes: purchased Gentest (Huntsville, AL), now a part of Discovery Life Sciences lot 2402280; host or cells: insect cells, recombinant baculovirus
- Km [2]: 189 ± 37 µM
- kcat [2]: 67 ± 18 min⁻¹
